Earlier results on one substance are cited in patent publication US20240082153A1, “IVERMECTIN FORMULATION IN ORAL SOLUTION” (PROCAPS S.A., priority 2020, published 2024).

One data set concerns SARS-CoV-2. The conditions noted are these: in vitro, after 48 hours.

With Ivermectin, the solubility in water entry is “practically insoluble in water”. Moreover, the “reduction in viral RNA” value in the data set with SARS-CoV-2 was “approximately 5,000 fold”.
